The values that follow come from patent publication US20260365671A1, “HETEROCYCLIC COMPOUND” (Takeda Pharmaceutical Company Limited, priority 2022, published 2026).

For one assay, the target named is T1, NLRP3 inflammasome (Homo sapiens, UniProt Q96P20).
T1 construct: IL-1beta HTRF
Kind of assay: IL-1β TR-FRET assay (THP-1 cells differentiated to macrophages with IFN-γ, LPS primed, ATP activated; HTRF). Particulars: THP-1 macrophages, 50 ng/mL LPS priming, compound 30 min, 20 mM ATP 2 hours. The class given is cell-based. As for the experimental part: (§1) The biological activity of Compound (I) with respect to NLRP3 was determined using the following in vitro methods.
IL-1β TR-FRET Assay (Reported as IC50)
Monocytic THP-1 cells (ATCC: TIB-202) were maintained in accordance with the provider's instructions in RPMI media (Life Technologies, Cat #A10491-01); RPMI was supplemented with 10% heat inactivated fetal bovine serum (Corning, Cat #35-010-CV). The cells were differentiated into macrophages by the addition of 25 ng/mL IFN-γ (PeproTech, Cat #AF300-02-100UG) for 24 hours at 37 °C/5% CO2. Media was exchanged with fresh media with no FBS, and the cells were treated with 50 ng/mL LPS (priming step) (LPS-EK: Invivogen, Cat #tlrl-peklps). The cells were plated at 240,000 cells per well in 384-well flat-bottom cell culture plates (FALCON, Cat #353962) and were incubated for 24 hours at 37 °C/5% CO2. Compounds were serially diluted (half log dilutions) with DMSO and were finally diluted with Media with no FBS. The compounds were added to the cells in 384-well plates (added in 1:3) and then the plates were incubated for 30 minutes at 37 °C/5% CO2. The NLRP3 inflammasome was activated with the addition of 20 mM ATP (Sigma Cat #A3377-25G) and the cells were incubated for 2 hours at 37 °C/5% CO2. At the end of the incubation period, 30 μL supernatant was transferred to another 384-well plate and mixed on a plate shaker for 1 minutes. The supernatant was mixed with HTRF Antibody (Human IL1 beta kit, Cisbio, 62HIL1BPEH) in assay plates (Greiner Bio-One, Cat #784075) and the assay plates were incubated in shading box at room temperature for 16-24 hours. HTRF signal was measured by EnVision (Perkinelmer) in accordance with the manufacturer's instructions.
(§2) The IC50 values were calculated from a plot of percentage of inhibition versus the inhibitor concentration by a logistics curve fit according to: Y=[Bottom+(Top−Bottom)]/(1+10^[(Log IC50−X)·Hill Slope], where Y is the % inhibition at the inhibitor concentration, X, “Bottom” is the lowest inhibition value, i.e., 0%, “Top” is the maximum inhibition value, i.e., 100%, and the “Hill Slope” describes the slope of the sigmoidal curve between the “Bottom” and “Top” values. The curve fitting was conducted with XLfit (ver. 5.5.0.5, ID Business Solutions Limited) or internally developed software.
(§3) Table 2 lists in vitro biological assay data (IL-1β and TNF-α) for the compounds shown in the examples. These assays are described in the section entitled Biological Activity, above.
Background: Time-resolved FRET reads energy transfer from a long-lived donor to a nearby acceptor.

A further assay concerns NF-κB pathway. Kind of assay: TNF-α assay (THP-1 cells differentiated to macrophages with IFN-γ, NF-κB pathway activated with LPS; ELISA). In kind it is cell-based, Human. The conditions noted are these: Homo sapiens, THP-1, THP-1 macrophages, compound 30 min, 50 ng/mL LPS 3 hours. On the procedure:
as §1
TNF-α Assay (Reported as IC50)
Monocytic THP-1 cells (ATCC: TIB-202) were maintained in accordance with the provider's instructions in RPMI media (Life Technologies, Cat #A10491-01); RPMI was supplemented with 10% heat inactivated fetal bovine serum (Hyclone Cat #SH30396.03). The cells were differentiated into macrophages by the addition of 25 ng/mL IFN-γ for 24 hours at 37 °C/5% CO2. Media was exchanged with fresh media with no FBS. The cells were plated at 40,000 cells per well in 384-well flat-bottom cell culture plates (Costar 3764) containing compounds (added in 1:1000) in a 1:3.16 serial dilution series in DMSO and were incubated for 30 minutes at 37 °C/5% CO2. The NF-κB pathway was activated with the addition of 50 ng/mL LPS and the cells were incubated for 3 hours at 37 °C/5% CO2. At the end of the incubation period, supernatant ([…]) was removed, and […] were monitored using an ELISA (Human TNF-α ELISA, R&D systems, Cat #DY210) according to the manufacturer's instructions.
as §2, §3
On the technique in general: ELISA stands for enzyme-linked immunosorbent assay.

T1 sequence (Q96P20 whole entry): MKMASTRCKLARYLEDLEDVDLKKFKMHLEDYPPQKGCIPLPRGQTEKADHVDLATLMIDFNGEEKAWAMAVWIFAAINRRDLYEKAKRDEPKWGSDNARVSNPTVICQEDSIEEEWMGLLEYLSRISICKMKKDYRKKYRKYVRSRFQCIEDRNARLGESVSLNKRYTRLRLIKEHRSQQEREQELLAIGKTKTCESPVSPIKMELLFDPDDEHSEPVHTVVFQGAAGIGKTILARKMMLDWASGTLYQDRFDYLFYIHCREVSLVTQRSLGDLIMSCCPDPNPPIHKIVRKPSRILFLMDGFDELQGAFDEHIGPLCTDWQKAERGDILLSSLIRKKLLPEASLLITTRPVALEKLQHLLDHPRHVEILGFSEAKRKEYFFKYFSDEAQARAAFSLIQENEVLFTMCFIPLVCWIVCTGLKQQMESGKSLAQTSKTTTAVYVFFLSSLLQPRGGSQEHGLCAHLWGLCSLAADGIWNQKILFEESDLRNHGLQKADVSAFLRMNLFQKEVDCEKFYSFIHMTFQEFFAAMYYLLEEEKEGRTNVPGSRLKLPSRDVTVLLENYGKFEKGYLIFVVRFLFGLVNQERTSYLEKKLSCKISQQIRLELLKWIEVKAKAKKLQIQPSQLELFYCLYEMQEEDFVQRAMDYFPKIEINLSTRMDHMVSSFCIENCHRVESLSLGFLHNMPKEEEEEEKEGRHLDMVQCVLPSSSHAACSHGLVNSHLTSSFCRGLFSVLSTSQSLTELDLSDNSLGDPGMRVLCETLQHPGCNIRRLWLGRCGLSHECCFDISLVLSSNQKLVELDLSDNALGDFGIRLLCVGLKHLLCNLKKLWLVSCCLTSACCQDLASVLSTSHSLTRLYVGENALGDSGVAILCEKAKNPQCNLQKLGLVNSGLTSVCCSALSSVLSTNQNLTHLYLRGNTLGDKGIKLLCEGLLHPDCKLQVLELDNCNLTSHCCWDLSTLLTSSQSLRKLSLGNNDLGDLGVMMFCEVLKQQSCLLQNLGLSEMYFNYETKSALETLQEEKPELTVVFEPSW

On to `Cc1cc(F)cc(O)c1-n1cc2sc(N[C@@H]3CCCC[C@H]3O)nc2n1` [Example 6, 5-fluoro-2-(5-{[(1R,2R)-2-hydroxycyclohexyl]amino}-2H-pyrazolo[3,4-d][1,3]thiazol-2-yl)-3-methylphenol], for which the IC50 is 980 nM against NLRP3 inflammasome and greater than 10000 nM in the assay with NF-κB pathway.

Consider `CCN1C[C@H](F)C[C@@H](Nc2nc3nn(-c4c(C)cc(C)cc4O)cc3s2)C1` [Example 7, 2-(5-{[(3R,5R)-1-ethyl-5-fluoropiperidin-3-yl]amino}-2H-pyrazolo[3,4-d][1,3]thiazol-2-yl)-3,5-dimethylphenol], for which the figures for the IC50 against NLRP3 inflammasome and in the assay with NF-κB pathway were 13 nM and greater than 30000 nM, respectively.

For the compound `CN1C[C@H](F)C[C@@H](Nc2nc3nn(-c4c(O)cccc4Cl)cc3s2)C1` [Example 8, 3-chloro-2-(5-{[(3R,5R)-5-fluoro-1-methylpiperidin-3-yl]amino}-2H-pyrazolo[3,4-d][1,3]thiazol-2-yl)phenol], the IC50 is 290 nM on NLRP3 inflammasome and greater than 30000 nM in the assay with NF-κB pathway.

For the compound `Cc1cc(Cl)cc(O)c1-n1cc2sc(N[C@@H]3C[C@@H](F)CN(C)C3)nc2n1` [Example 9, 5-chloro-2-(5-{[(3R,5R)-5-fluoro-1-methylpiperidin-3-yl]amino}-2H-pyrazolo[3,4-d][1,3]thiazol-2-yl)-3-methylphenol], the IC50 is 14 nM against NLRP3 inflammasome and greater than 30000 nM in the assay on NF-κB pathway.

Take `Cc1cc(O)c(-n2cc3sc(N[C@@H]4C[C@@H](F)CN(C)C4)nc3n2)c(Cl)c1` [Example 11, 3-chloro-2-(5-{[(3R,5R)-5-fluoro-1-methylpiperidin-3-yl]amino}-2H-pyrazolo[3,4-d][1,3]thiazol-2-yl)-5-methylphenol]: the values for the IC50 against NLRP3 inflammasome and with NF-κB pathway were 37 nM and greater than 30000 nM, respectively.

Consider `Cc1cc(F)cc(O)c1-n1cc2sc(N[C@@H]3CCCN(C4CC4)C3)nc2n1` [Example 12, 2-(5-{[(3R)-1-cyclopropylpiperidin-3-yl]amino}-2H-pyrazolo[3,4-d][1,3]thiazol-2-yl)-5-fluoro-3-methylphenol], for which the figures for the IC50 against NLRP3 inflammasome and in the assay with NF-κB pathway were 3.6 nM and greater than 10000 nM, respectively.

`Cc1cc(C(F)F)cc(O)c1-n1cc2sc(N[C@@H]3C[C@@H](F)CN(C)C3)nc2n1` [Example 13, 5-(difluoromethyl)-2-(5-{[(3R,5R)-5-fluoro-1-methylpiperidin-3-yl]amino}-2H-pyrazolo[3,4-d][1,3]thiazol-2-yl)-3-methylphenol]: the IC50 on NLRP3 inflammasome is 25 nM; in the assay with NF-κB pathway, greater than 30000 nM.

Regarding `CCN1C[C@H](F)C[C@@H](Nc2nc3nn(-c4c(C)cc(C(F)F)cc4O)cc3s2)C1` [Example 16, 5-(difluoromethyl)-2-(5-{[(3R,5R)-1-ethyl-5-fluoropiperidin-3-yl]amino}-2H-pyrazolo[3,4-d][1,3]thiazol-2-yl)-3-methylphenol], the IC50 on NLRP3 inflammasome is 11 nM; with NF-κB pathway it was greater than 30000 nM.

Consider `CN1C[C@H](F)C[C@@H](Nc2nc3nn(-c4c(O)cc(F)cc4Cl)cc3s2)C1` [Example 17, 3-chloro-5-fluoro-2-(5-{[(3R,5R)-5-fluoro-1-methylpiperidin-3-yl]amino}-2H-pyrazolo[3,4-d][1,3]thi-azol-2-yl)phenol], for which the values for the IC50 at NLRP3 inflammasome and in the assay on NF-κB pathway were 110 nM and greater than 30000 nM, respectively.

In the case of `Oc1cc(F)cc(Cl)c1-n1cc2sc(N[C@@H]3CCCN(C4CC4)C3)nc2n1` [Example 18, 3-chloro-2-(5-{[(3R)-1-cyclopropyl-piperidin-3-yl]amino}-2H-pyrazolo[3,4-d][1,3]thiazol-2-yl)-5-fluorophenol], the IC50 against NLRP3 inflammasome is 11 nM; in the assay on NF-κB pathway, greater than 30000 nM.

Regarding `CO[C@H]1C[C@@H](Nc2nc3nn(-c4c(C)cc(C)cc4O)cc3s2)CN(C)C1` [Example 19, 2-(5-{[(3R,5S)-5-methoxy-1-methylpiperidin-3-yl]amino}-2H-pyrazolo[3,4-d][1,3]thiazol-2-yl)-3,5-dimethylphenol], the IC50 is 5400 nM on NLRP3 inflammasome and greater than 30000 nM in the assay on NF-κB pathway.

Take `CCc1cc(C)cc(O)c1-n1cc2sc(N[C@@H]3C[C@@H](F)CN(C)C3)nc2n1` [Example 20, 3-ethyl-2-(5-{[(3R,5R)-5-fluoro-1-methylpiperidin-3-yl]amino}-2H-pyrazolo[3,4-d][1,3]thiazol-2-yl)-5-methylphenol]: the IC50 against NLRP3 inflammasome was 9.2 nM; in the assay on NF-κB pathway, greater than 30000 nM.

As to `CCN1C[C@H](F)C[C@@H](Nc2nc3nn(-c4c(O)cc(F)cc4C(F)F)cc3s2)C1` [Example 24, 3-(difluoromethyl)-2-(5-{[(3R,5R)-1-ethyl-5-fluoropiperidin-3-yl]amino}-2H-pyrazolo[3,4-d][1,3]thiazol-2-yl)-5-fluorophenol], the IC50 against NLRP3 inflammasome is 16 nM; with NF-κB pathway, greater than 10000 nM.

Take `Cc1cc(C)c(-n2cc3sc(N[C@H]4CC[C@H](O)CC4)nc3n2)c(O)c1` [Example 25, 2-{5-[(trans-4-hydroxycyclo-hexyl)amino]-2H-pyrazolo[3,4-d][1,3]thiazol-2-yl}-3,5-dimethylphenol]: the IC50 is 350 nM at NLRP3 inflammasome and greater than 10000 nM with NF-κB pathway.

Turning to `Cc1cc(C)c(-n2cc3sc(N[C@H]4CC[C@@H](O)CC4)nc3n2)c(O)c1` [Example 26, 2-{5-[(cis-4-hydroxycyclohexyl)amino]-2H-pyrazolo[3,4-d][1,3]thiazol-2-yl}-3,5-dimethylphenol], the IC50 at NLRP3 inflammasome was 830 nM; in the assay on NF-κB pathway, greater than 10000 nM.

Consider `Cc1cc(C)c(-n2cc3sc(N[C@@H]4CCCN(C(=O)OCC(Cl)(Cl)Cl)C4)nc3n2)c(O)c1` [Example 27, 2,2,2-trichloroethyl (3R)-3-{[2-(2-hydroxy-4,6-dimethylphenyl)-2H-pyrazolo[3,4-d][1,3]thiazol-5-yl]amino}piperidine-1-carboxylate], for which the results for the IC50 on NLRP3 inflammasome and in the assay on NF-κB pathway were 620 nM and 6300 nM, respectively.

For `Cc1cc(C)c(-n2cc3sc(NC4CCCC4O)nc3n2)c(O)c1` (stereo not drawn) [Example 28, 2-{5-[(2-hydroxycyclopentyl)amino]-2H-pyrazolo[3,4-d][1,3]thiazol-2-yl}-3,5-dimethylphenol], the IC50 at NLRP3 inflammasome is 480 nM; with NF-κB pathway it was greater than 10000 nM.

On to `Cc1cc(C)c(-n2cc3sc(NC4CCCC(O)C4)nc3n2)c(O)c1` (stereo not drawn) [Example 29, 2-{5-[(3-hydroxycyclohexyl)amino]-2H-pyrazolo[3,4-d][1,3]thiazol-2-yl}-3,5-dimethylphenol], for which the figures for the half-maximal inhibitory concentration (IC50) against NLRP3 inflammasome and in the assay on NF-κB pathway were 540 nM and greater than 10000 nM, respectively.

`Cc1cc(C)c(-n2cc3sc(NC4CC5(CC(O)C5)C4)nc3n2)c(O)c1` (stereo not drawn) [Example 30, 6-{[2-(2-hydroxy-4,6-dimethylphenyl)-2H-pyrazolo[3,4-d][1,3]thiazol-5-yl]amino}spiro[3.3]heptan-2-ol]: the IC50 was 830 nM against NLRP3 inflammasome and greater than 10000 nM with NF-κB pathway.

With `Cc1cc(C)c(-n2cc3sc(N[C@H]4C[C@@](C)(O)C4)nc3n2)c(O)c1` [Example 31, 2-{5-[(cis-3-hydroxy-3-methylcyclobutyl)amino]-2H-pyrazolo[3,4-d][1,3]thiazol-2-yl}-3,5-dimethylphenyl], the values for the IC50 against NLRP3 inflammasome and in the assay on NF-κB pathway were 650 nM and greater than 30000 nM, respectively.

In the case of `Cc1cc(C)c(-n2cc3sc(N[C@H]4C[C@](C)(O)C4)nc3n2)c(O)c1` [Example 32, 2-{5-[(trans-3-hydroxy-3-methylcyclobutyl)amino]-2H-pyrazolo[3,4-d][1,3]thiazol-2-yl}-3,5-dimethylphenol], the IC50 against NLRP3 inflammasome was 680 nM; in the assay with NF-κB pathway, greater than 10000 nM.

Usually IC50 stands for the concentration that inhibits the measured activity by half. The low end stands for inhibition by little substance, the high end for a need for much substance.
